Data on 22 molecules can be found in patent US20260027101A1, “BACTERIAL TOPOISOMERASE INHIBITORS” (priority 2022, published 2026).

What all share (type): cell-based
In assay [1] the test system is Salmonella enterica ATCC 14028. The assay is described as follows: MIC, Salmonella enterica ATCC 14028. Particulars: ATCC14028, read-out: MIC against Salmonella enterica ATCC 14028. As to the method: (§1) Minimum inhibitory concentrations (MICs) were determined in triplicate according to Clinical and Laboratory Standards Institute (CLSI) guidelines using one or more strains of S. aureus or selected Gram-negative bacteria. […] Compounds were also assayed using a USA300 (Hidron, A. I., et al., Emergence of Community-Acquired Meticillin-Resistant Staphylococcus aureus Strain USA300 as a Cause of Necrotising Community-Onset Pneumonia. Lancet Infect. Dis. 2009, 9. 384-392) isolate of MRSA as well as a S. aureus strain isolated from a cystic fibrosis patient.

The subject of assay [2] is Staphylococcus aureus USA300 (MRSA isolate). The assay is described as follows: MIC, S. aureus USA300 MRSA isolate (CLSI). The settings on record: read-out: MIC against Staphylococcus aureus USA300. The method, then:
as §1

The test system of assay [3] is Staphylococcus aureus D83N (29213-derived strain, GyrA substitution). The assay is described as follows: microbe, parasite or virus in culture. The settings on record: read-out: MIC against Staphylococcus aureus D83N. The method, then:
as §1

Assay [4] relates to Staphylococcus aureus M121K (29213-derived strain, GyrA substitution). The assay is described as follows: microbe, parasite or virus in culture. Particulars: read-out: MIC against Staphylococcus aureus M121K. The method, then: as §1
Assay [5] deals with Salmonella enterica 14028 ΔtolC (efflux-deficient strain). The assay is described as follows: microbe, parasite or virus in culture. The settings on record: Salmonella enterica, read-out: MIC against Salmonella enterica 14028 ΔtolC. As to the method:
as §1

Assay [6] deals with Escherichia coli ATCC 25922. Briefly: MIC, Escherichia coli ATCC 25922. The settings on record: ATCC25922, read-out: MIC against Escherichia coli ATCC 25922. The method, then: as §1
Assay [7] relates to Staphylococcus aureus ATCC 29213. Briefly: MIC, S. aureus ATCC 29213 (CLSI). Particulars: ATCC29213, read-out: MIC against Staphylococcus aureus ATCC 29213. As to the method:
as §1

Assay [8] concerns Staphylococcus aureus CF isolate. The assay is described as follows: MIC, S. aureus cystic fibrosis isolate (CLSI). Particulars: read-out: MIC against Staphylococcus aureus CF isolate. The method, then: as §1
The subject of assay [9] is Pseudomonas aeruginosa ATCC 27853. Briefly: MIC, Pseudomonas aeruginosa ATCC 27853. Particulars: ATCC27853, read-out: MIC against Pseudomonas aeruginosa ATCC 27853. As to the method:
as §1

For assay [10], the system named is Acinetobacter baumanii ATCC 19606. The assay is described as follows: MIC, Acinetobacter baumanii ATCC 19606. Particulars: Acinetobacter baumannii, ATCC19606, read-out: MIC against Acinetobacter baumanii ATCC 19606. As to the method: as §1

Values after ≈ are worked out from the molar mass of the structure shown.

As to `COc1ccc2ncc(F)c(CCN3CCC(C(=O)Cc4ccc(C)cc4)CC3)c2n1` [Example 22, 1-(1-(2-(3-fluoro-6-methoxy-1,5-naphthyridin-4-yl)ethyl)piperidin-4-yl)-2-(p-tolyl)ethan-1-one], the MIC was 64 µg/mL (≈ 152 µM) in [1]; 0.125 to 0.5 µg/mL (≈ 0.297 to 1.19 µM) in assay [2]; 4 µg/mL (≈ 9.49 µM) in [3]; 8 µg/mL (≈ 19 µM) in [4]; 0.5 µg/mL (≈ 1.19 µM) in [5]; 16 µg/mL (≈ 38 µM) in assay [6]. The MIC was 0.125 µg/mL (≈ 0.297 µM) in assay [7], 0.125 to 0.5 µg/mL (≈ 0.297 to 1.19 µM) in assay [8], more than 64 µg/mL in assay [9] and 32 µg/mL (≈ 75.9 µM) in [10].

In the case of `COc1ccc2ncc(F)c(CCN3CCC(C(O)C(O)c4ccc5c(c4)NC(=O)CO5)CC3)c2n1` (single isomer, unassigned) [Example 15, 6-(-2-(1-(2-(3-fluoro-6-methoxy-1,5-naphthyridin-4-yl)ethyl)piperidin-4-yl)-1,2-dihydroxyethyl)-2H-benzo[b][1,4]oxazin-3(4H)-one], in [5], the MIC was 0.5 µg/mL (≈ 1.01 µM).

As for `COc1ccc2ncc(F)c(CCN3CCC([C@@H](O)[C@H](O)c4ccc5c(c4)OCCO5)CC3)c2n1` [Example 5, (1R,2R)-1-(2,3-dihydrobenzo[b][1,4]dioxin-6-yl)-2-(1-(2-(3-fluoro-6-methoxy-1,5-naphthyridin-4-yl)ethyl)piperidin-4-yl)ethane-1,2-diol], the MIC in assay [5] came out at 0.5 µg/mL (≈ 1.03 µM).

Consider `COc1ccc2ncc(F)c(CCN3CCC(C(O)Cc4ccc5c(c4)OCC(=O)N5)CC3)c2n1` (stereo not shown) [Example 27, 7-(2-(1-(2-(3-fluoro-6-methoxy-1,5-naphthyridin-4-yl)ethyl)piperidin-4-yl)-2-hydroxyethyl)-2H-benzo[b][1,4]oxazin-3(4H)-one], for which the MIC was 32 µg/mL (≈ 66.6 µM) in assay [4] and not above 0.125 µg/mL in assay [5].

`COc1ccc2ncc(F)c(CCN3CCC(C(O)C(O)c4ccc(C)cc4)CC3)c2n1` (single isomer, unassigned) [Example 16, 1-(1-(2-(3-fluoro-6-methoxy-1,5-naphthyridin-4-yl)ethyl)piperidin-4-yl)-2-(p-tolyl)ethane-1,2-diol]: the MIC in assay [4] was 4 µg/mL (≈ 9.1 µM).

Consider `COc1ccc2ncc(F)c(CCN3CCC(C(N)Cc4ccc5c(c4)OCCO5)CC3)c2n1` (stereo not shown) [Example 29, 2-(2,3-dihydrobenzo[b][1,4]dioxin-6-yl)-1-(1-(2-(3-fluoro-6-methoxy-1,5-naphthyridin-4-yl)ethyl)piperidin-4-yl)ethan-1-amine], for which the MIC in [3] and in [4] was more than 16 µg/mL throughout.

Regarding `COc1ccc2ncc(F)c(CCN3CCC(C(O)Cc4ccc5c(c4)OCCO5)CC3)c2n1` (stereo not shown) [Example 26, 2-(2,3-dihydrobenzo[b][1,4]dioxin-6-yl)-1-(1-(2-(3-fluoro-6-methoxy-1,5-naphthyridin-4-yl)ethyl)piperidin-4-yl)ethan-1-ol], the MIC in assay [3] and in assay [4] was 4 µg/mL (≈ 8.56 µM) throughout.

`COc1ccc2ncc(F)c(CCN3CCC(C(=O)Cc4ccc5c(c4)OCCO5)CC3)c2n1` [Example 23, 2-(2,3-dihydrobenzo[b][1,4]dioxin-6-yl)-1-(1-(2-(3-fluoro-6-methoxy-1,5-naphthyridin-4-yl)ethyl)piperidin-4-yl)ethan-1-one]: the MIC in assay [1] was more than 64 µg/mL; in [3], 32 µg/mL (≈ 68.7 µM); in [4], more than 32 µg/mL; in assay [8], 8 µg/mL (≈ 17.2 µM); in assay [9], more than 64 µg/mL.

In the case of `COc1ccc2ncc(F)c(CCN3CCC(CCc4ccc5c(c4)OCCO5)CC3)c2n1` [Example 20, 8-(2-(4-(2-(2,3-dihydrobenzo[b][1,4]dioxin-6-yl)ethyl)piperidin-1-yl)ethyl)-7-fluoro-2-methoxy-1,5-naphthyridine], the values for the MIC in assay [3], in assay [4] and in [5] were 8 µg/mL (≈ 17.7 µM), more than 8 µg/mL and 0.25 µg/mL (≈ 0.554 µM), respectively.

For `COc1ccc2ncc(F)c(CCN3CCC([C@H](O)[C@@H](O)c4ccc(C)cc4)CC3)c2n1` [Example 7, (1S,2S)-1-(1-(2-(3-fluoro-6-methoxy-1,5-naphthyridin-4-yl)ethyl)piperidin-4-yl)-2-(p-tolyl)ethane-1,2-diol], the MIC in assay [3] and in [4] was more than 32 µg/mL in each case.

Take `COc1ccc2ncc(F)c(CCN3CCC(C(N)Cc4ccc5c(c4)NC(=O)CO5)CC3)c2n1` (stereo not shown) [Example 30, 6-(2-amino-2-(1-(2-(3-fluoro-6-methoxy-1,5-naphthyridin-4-yl)ethyl)piperidin-4-yl)ethyl)-2H-benzo[b][1,4]oxazin-3(4H)-one]: in assay [4], the MIC is more than 64 µg/mL.

As for `COc1ccc2ncc(F)c(CCN3CCC([C@@H](O)[C@H](O)c4ccc(C)cc4)CC3)c2n1` [Example 4, (1R,2R)-1-(1-(2-(3-fluoro-6-methoxy-1,5-naphthyridin-4-yl)ethyl)piperidin-4-yl)-2-(p-tolyl)ethane-1,2-diol], in assay [5], the MIC was 0.5 to 1 µg/mL (≈ 1.14 to 2.28 µM).

Take `COc1ccc2ncc(F)c(CCN3CCC([C@@H](O)[C@H](O)c4ccc5c(c4)NC(=O)CO5)CC3)c2n1` [Example 6, 6-((1R,2R)-2-(1-(2-(3-fluoro-6-methoxy-1,5-naphthyridin-4-yl)ethyl)piperidin-4-yl)-1,2-dihydroxyethyl)-2H-benzo[b][1,4]oxazin-3(4H)-one]: the MIC in assay [3] and in assay [4] was more than 32 µg/mL throughout.

As to `COc1ccc2ncc(F)c(CCN3CCC(C(N)Cc4ccc(C)cc4)CC3)c2n1` (stereo not shown) [Example 28, 1-(1-(2-(3-fluoro-6-methoxy-1,5-naphthyridin-4-yl)ethyl)piperidin-4-yl)-2-(p-tolyl)ethan-1-amine], the MIC in assay [3] was 32 µg/mL (≈ 75.7 µM); in [4], more than 32 µg/mL.

For the molecule `CN[C@H](CC(C)C)C(=O)N[C@H]1C(=O)N[C@@H](CC(N)=O)C(=O)N[C@H]2C(=O)N[C@H]3C(=O)N[C@H](C(=O)N[C@H](C(=O)O)c4cc(O)cc(O)c4-c4cc3ccc4O)[C@H](O)c3ccc(c(Cl)c3)Oc3cc2cc(c3O[C@@H]2O[C@H](CO)[C@@H](O)[C@H](O)[C@H]2O[C@H]2C[C@](C)(N)[C@H](O)[C@H](C)O2)Oc2ccc(cc2Cl)[C@H]1O` [vancomycin, reference compound], the MIC is 1 µg/mL (≈ 0.69 µM) in [2]; 1 µg/mL (≈ 0.69 µM) in assay [3]; 1 µg/mL (≈ 0.69 µM) in [4]; 1 to 2 µg/mL (≈ 0.69 to 1.38 µM) in assay [7]; 1 µg/mL (≈ 0.69 µM) in assay [8].

`COc1ccc2ncc(F)c(CCN3CCC(/C=C\c4ccc(C)cc4)CC3)c2n1` [Example 10, (Z)-7-fluoro-2-methoxy-8-(2-(4-(4-methylstyryl)piperidin-1-yl)ethyl)-1,5-naphthyridine]: the results for the MIC in [3], in assay [4] and in assay [5] were 32 µg/mL (≈ 78.9 µM), 32 µg/mL (≈ 78.9 µM) and 8 µg/mL (≈ 19.7 µM), respectively.

Regarding `COc1ccc2ncc(F)c(CCN3CCC(CCc4ccc5c(c4)NC(=O)CO5)CC3)c2n1` [Example 21, 6-(2-(1-(2-(3-fluoro-6-methoxy-1,5-naphthyridin-4-yl)ethyl)piperidin-4-yl)ethyl)-2H-benzo[b][1,4]oxazin-3(4H)-one], the MIC in assay [4] was 64 µg/mL (≈ 138 µM).

For `COc1ccc2ncc(F)c(CCN3CCC(C(O)Cc4ccc(C)cc4)CC3)c2n1` (stereo not shown) [Example 25, 1-(1-(2-(3-fluoro-6-methoxy-1,5-naphthyridin-4-yl)ethyl)piperidin-4-yl)-2-(p-tolyl)ethan-1-ol], the MIC in assay [3] is 8 µg/mL (≈ 18.9 µM); in [4] it was 8 µg/mL (≈ 18.9 µM); in assay [5] it was 1 µg/mL (≈ 2.36 µM).

As for `COc1ccc2ncc(F)c(CCN3CCC(CCc4ccc(C)cc4)CC3)c2n1` [Example 19, 7-fluoro-2-methoxy-8-(2-(4-(4-methylphenethyl)piperidin-1-yl)ethyl)-1,5-naphthyridine], the MIC in assay [3] is 4 µg/mL (≈ 9.82 µM); in [4], more than 16 µg/mL.

With `COc1ccc2ncc(F)c(CCN3CCC(C(O)C(O)c4ccc(C)cc4)CC3)c2n1` (single isomer, unassigned) [Example 13, 1-(1-(2-(3-fluoro-6-methoxy-1,5-naphthyridin-4-yl)ethyl)piperidin-4-yl)-2-(p-tolyl)ethane-1,2-diol], the MIC in [3] was more than 32 µg/mL.

`COc1ccc2ncc(F)c(CCN3CCC([C@H](O)[C@@H](O)c4ccc5c(c4)NC(=O)CO5)CC3)c2n1` [Example 9, 6-((1S,2S)-2-(1-(2-(3-fluoro-6-methoxy-1,5-naphthyridin-4-yl)ethyl)piperidin-4-yl)-1,2-dihydroxyethyl)-2H-benzo[b][1,4]oxazin-3(4H)-one]: the MIC in [3] was more than 32 µg/mL; in assay [4], more than 32 µg/mL; in assay [5], 0.25 µg/mL (≈ 0.503 µM).

Regarding `COc1ccc2ncc(F)c(CCN3CCC(/C=C/c4ccc(C)cc4)CC3)c2n1` [Example 1, (E)-7-fluoro-2-methoxy-8-(2-(4-(4-methylstyryl)piperidin-1-yl)ethyl)-1,5-naphthyridine], the figures for the MIC in [4] and in assay [5] were 2 to 4 µg/mL (≈ 4.93 to 9.86 µM) and 0.5 to 1 µg/mL (≈ 1.23 to 2.47 µM), respectively.
